Results on two substances are retold here after patent US9598466B2, “Glycopeptide constructs and uses thereof” (Sloan-Kettering Institute for Cancer Research, priority 2008, dated 2017).

One assay concerns human HLA-DR. Conditions: literature (Southwood et al. 1998); cited from earlier work.
Assay [1] is described as follows: ELISA of sera from vaccinated mice for antibodies against Gb3. In kind it is in vivo, mice (C57BL/6J). Conditions: mice vaccinated subcutaneously, unconjugated antigen plus an adjuvant such as QS-21; sera tested against Gb3-ceramide. As to the method:
Groups of five mice were vaccinated subcutaneously with Gb3-MUC5AC or Gb3-MUC5AC-KLH conjugate plus adjuvant with appropriate controls. Sera were tested against Gb3-ceramide by ELISA.
Groups of five mice (C57BL/6J, female, 6-8 weeks old) were vaccinated three times with GB3-ceramide conjugate (5 μg equivalent of GB3), MUC5Ac peptide (5 μg equivalent of MUC5Ac), GB3-MUC5Ac-SH conjugate (5 μg equivalent of GB3-MUC5AC), GB3-MUC5Ac-KLH conjugate (1, 5 and 10 μg equivalent of GB3-MUC5Ac), Globo H-KLH conjugate (5 μg equivalent of GloboH) and KLH protein alone (5 μg equivalent of KLH) in 100 μL phosphate buffered saline (PBS) either with an adjuvant (20 μg) or without adjuvant. Vaccines were administered subcutaneously to each mouse on weeks 1, 2, 3, and 7. Mice were bled 7 days after the third vaccination and forth vaccination.
The presence of antibodies was tested by an enzyme-linked immunosorbent assay (ELISA). ELISAs were performed to determine antibody response against GB3, Globo H and KLH. The ELISA plates were coated with either GB3 antigen or Globo H at 0.2 μg/well and 0.1 μg/well respectively in ethanol or KLH at 0.1 μg/well in carbonate buffer (pH 10). The GB3-coated and Globo H coated plates were kept overnight at room temperature to evaporate ethanol, and KLH coated plates were incubated at 4° C. overnight. […] Absorbance was measured at 405 nm.
Background: In an ELISA, binding on a coated surface is turned into a signal by an enzyme label.

Turning to GLAYKFVVPGAATPY, in the assay on human HLA-DR, the “binding capacity to human HLA-DR alleles” value is recorded as “prevalently in the nanomolar range” and the “number of different alleles of human HLA-DR bound” value is reported as “up to 9”. Consider globotriaosyl ceramide [Gb3-ceramide], for which the “antibodies against Gb3 by ELISA” value in assay [1] is given as “failed to produce antibodies against Gb3”.
